Measurements: patent US20260035411A1, “CRYSTALLINE FORMS OF A PCSK9 INHIBITOR, COMPOSITIONS AND USES” (MERCK SHARP & DOHME LLC, priority 2022, published 2026)
Entries after “also recorded” stand apart in the source; their conditions may differ. Read-outs that look alike come from different tables or passages of the source.

How the values were obtained:
[1] = XRPD analysis before and after adsorption/desorption cycles (physical stability, crystallinity); type: physicochemical
Experimental: X-ray powder diffraction studies are widely used to characterize molecular structures, crystallinity, and polymorphism. The X-ray powder diffraction patterns disclosed herein were generated on a Philips Analytical X′Pert PRO X-ray Diffraction System with PW3040/60 console. A PW3373/00 ceramic Cu LEF X-ray tube K-Alpha radiation was used as the source.
In addition, the chloride salt requires −20° C. storage to minimize chemical degradation while the acetate and caprate salts are less prone to degradation at higher temperatures. […] The stability of crystalline forms of the compounds of Formula I were characterized by XRPD under relative humidity conditions that simulate potential storage conditions.

[2] = Adsorption/desorption cycles under relative humidity (weight increase, hygroscopicity)

COc1ccc(C[C@@H]2NC(=O)[C@H]([C@@H](C)O)NC(=O)[C@@H]3[C@@H]4CCN3C(=O)[C@@H]3Cc5cn(c6ccc(F)cc56)CCCCCCN(Cc5ccc(cc5)CCNC(=O)[C@]5(C)CCCN5C2=O)C(=O)CCC(=O)N[C@@H](C)C(=O)N[C@H](CNC(=O)CCCCC[N+](C)(C)C)C(=O)N[C@@H](Cc2cccc(c2)CNC(=O)CO4)C(=O)N3)cc1 [Caprate 3]
crystallinity by XRPD after adsorption/desorption [1]: maintains its crystallinity; also recorded: retains crystallinity
increase in weight [2]: ~4.9%
relative humidity by which H2O is readily absorbed [2]: 25-35 % RH
relative humidity until which H2O is not lost [2]: 15 % RH

COc1ccc(C[C@@H]2NC(=O)[C@H]([C@@H](C)O)NC(=O)[C@@H]3[C@@H]4CCN3C(=O)[C@@H]3Cc5cn(c6ccc(F)cc56)CCCCCCN(Cc5ccc(cc5)CCNC(=O)[C@]5(C)CCCN5C2=O)C(=O)CCC(=O)N[C@@H](C)C(=O)N[C@H](CNC(=O)CCCCC[N+](C)(C)C)C(=O)N[C@@H](Cc2cccc(c2)CNC(=O)CO4)C(=O)N3)cc1 [Caprate 5]
crystallinity by XRPD after adsorption/desorption [1]: retains some crystallinity; also recorded: loses crystallinity; also recorded: decrease in crystallinity
hysteresis during the desorption steps [2]: Slight hysteresis is observed

COc1ccc(C[C@@H]2NC(=O)[C@H]([C@@H](C)O)NC(=O)[C@@H]3[C@@H]4CCN3C(=O)[C@@H]3Cc5cn(c6ccc(F)cc56)CCCCCCN(Cc5ccc(cc5)CCNC(=O)[C@]5(C)CCCN5C2=O)C(=O)CCC(=O)N[C@@H](C)C(=O)N[C@H](CNC(=O)CCCCC[N+](C)(C)C)C(=O)N[C@@H](Cc2cccc(c2)CNC(=O)CO4)C(=O)N3)cc1 [Acetate 4]
crystallinity by XRPD after adsorption/desorption ([1]; 5-95-5% RH adsorption/desorption cycle (FIG. 31B, 33B)): loses crystallinity
crystallinity by XRPD after adsorption/desorption ([1]; two adsorption/desorption cycles of 5-55% RH (FIG. 30B)): retains minimal crystallinity; also recorded: decrease in crystallinity
hysteresis during the desorption step ([2]; 5-95% RH cycle (FIG. 31A)): Hysteresis is observed
increase in weight ([2]; at 55% RH (FIG. 30A)): ~9%
increase in weight ([2]; at 95% RH (FIG. 31A, 33A)): ~40%

COc1ccc(C[C@@H]2NC(=O)[C@H]([C@@H](C)O)NC(=O)[C@@H]3[C@@H]4CCN3C(=O)[C@@H]3Cc5cn(c6ccc(F)cc56)CCCCCCN(Cc5ccc(cc5)CCNC(=O)[C@]5(C)CCCN5C2=O)C(=O)CCC(=O)N[C@@H](C)C(=O)N[C@H](CNC(=O)CCCCC[N+](C)(C)C)C(=O)N[C@@H](Cc2cccc(c2)CNC(=O)CO4)C(=O)N3)cc1 [water-free Caprate 3]
crystallinity by XRPD after adsorption/desorption [1]: retains crystallinity
increase in weight [2]: ~9.4%
